The conditions of the series: for aqueous solubility: pH 6.8.

Values after ≈ are worked out from the molar mass of the structure shown.

One may read the aqueous solubility as the concentration that dissolves in the medium under given conditions. A low value points to a poorly soluble substance. Consider `Cc1ncc(CN2CC[C@@H](Nc3cncc(Cl)n3)[C@@H](C)C2)s1`, for which the MDR1-MDCK efflux ratio was found to be 0.974; the fraction unbound, human plasma is 0.16; the fraction unbound, rat plasma was 0.184; the intrinsic clearance, human liver microsomes came to 4.54 L/h/kg. Also, the intrinsic clearance, rat liver microsomes turned out to be 38.2 L/h/kg and the aqueous solubility stood at 0.0528 mg/mL (≈ 156 µM).
`O=C(NC12CCCC1NCC2)c1ccc(-c2cn[nH]c2)cc1` (configuration not stated): the MDR1-MDCK efflux ratio came out at 2.29; the fraction unbound, human plasma came out at 1; the intrinsic clearance, human liver microsomes is not above 0.284 L/h/kg.
Take `O=C(CCc1ccc2c(c1)OCO2)Nc1cccc2cnccc12`: the MDR1-MDCK efflux ratio turned out to be 1.01; the intrinsic clearance, human liver microsomes was determined as 2.51 L/h/kg; the intrinsic clearance, rat liver microsomes stood at 18 L/h/kg; the aqueous solubility is 0.0447 mg/mL (≈ 140 µM).
On to `COC[C@@H](O)Cn1c(C)nc2ccccc21`, for which the MDR1-MDCK efflux ratio stood at 1.43; the intrinsic clearance, human liver microsomes was not above 0.284 L/h/kg; the intrinsic clearance, rat liver microsomes was not above 0.64 L/h/kg.
As to `N#Cc1ccc(CCC(=O)Nc2ccncc2)cc1`, the MDR1-MDCK efflux ratio was found to be 1.39; the intrinsic clearance, human liver microsomes is not above 0.284 L/h/kg; the intrinsic clearance, rat liver microsomes is 3.62 L/h/kg; the aqueous solubility was 0.0379 mg/mL (≈ 151 µM).
Compound `CCNC1=N[C@@H]2[C@@H](O)[C@@H](O)[C@H](CO)O[C@@H]2S1` had an intrinsic clearance, human liver microsomes not above 0.284 L/h/kg and an intrinsic clearance, rat liver microsomes not above 0.64 L/h/kg.
Take `CCCCCCNc1ncnc2[nH]ccc12`: the MDR1-MDCK efflux ratio stood at 0.498; the intrinsic clearance, human liver microsomes stood at 4.25 L/h/kg; the intrinsic clearance, rat liver microsomes is 34.4 L/h/kg; the aqueous solubility was 0.0186 mg/mL (≈ 85.1 µM).
In the case of `CCCC(=O)N1CCC(c2cccc(C)n2)CC1`, the MDR1-MDCK efflux ratio is 0.574; the intrinsic clearance, human liver microsomes was not above 0.284 L/h/kg; the intrinsic clearance, rat liver microsomes is 26.6 L/h/kg; the aqueous solubility is 0.0402 mg/mL (≈ 163 µM).
As for `Cc1ccc(-c2ccc(NC(=O)c3ncoc3-c3ccccc3)cc2)o1`, the MDR1-MDCK efflux ratio was found to be 0.447 and the aqueous solubility worked out at 0.00037 mg/mL (≈ 1.07 µM).
As for `Cc1ccc(-c2cnc(N)cn2)c2cccnc12`, the MDR1-MDCK efflux ratio worked out at 0.671; the intrinsic clearance, human liver microsomes worked out at 1.39 L/h/kg; the intrinsic clearance, rat liver microsomes was determined as 4.52 L/h/kg; the aqueous solubility worked out at 0.0318 mg/mL (≈ 135 µM).
For the compound `COc1ccc(Nc2nc(N)nc(CN3CCN(Cc4ccccc4)CC3)n2)cc1`, the MDR1-MDCK efflux ratio worked out at 10.9; the intrinsic clearance, human liver microsomes came to 1.5 L/h/kg; the intrinsic clearance, rat liver microsomes came to 35.7 L/h/kg; the aqueous solubility came to 0.0651 mg/mL (≈ 161 µM).
In the case of `OC1CCN(c2ncc(-c3cnccn3)c(-c3cccs3)n2)CC1`, the MDR1-MDCK efflux ratio was determined as 1.14; the intrinsic clearance, human liver microsomes stood at 0.421 L/h/kg; the intrinsic clearance, rat liver microsomes was not above 0.64 L/h/kg; the aqueous solubility came out at 0.0479 mg/mL (≈ 141 µM).
Take `COc1ccc(-c2[nH]c3ncccc3c2CN(C)CCOc2ccccc2OC)cc1`: the MDR1-MDCK efflux ratio worked out at 3.88 and the aqueous solubility came out at 0.0003 mg/mL (≈ 0.719 µM).
For `CSc1ccccc1S(=O)(=O)NC1CCC(CN(C)C)CC1` (configuration not stated), the MDR1-MDCK efflux ratio stood at 8.91; the intrinsic clearance, human liver microsomes was not above 0.284 L/h/kg; the intrinsic clearance, rat liver microsomes stood at 26.4 L/h/kg.
Take `CC(C)n1nccc1-c1ncccc1COc1cccc(O)c1C=O`: the intrinsic clearance, human liver microsomes stood at 9.01 L/h/kg; the intrinsic clearance, rat liver microsomes stood at 42.9 L/h/kg; the aqueous solubility came out at 0.0379 mg/mL (≈ 112 µM).
In the case of `CCc1nnc2c3ccccc3nc(Nc3ccc(OC)cc3)n12`, the MDR1-MDCK efflux ratio was 0.092 and the aqueous solubility stood at 0.00014 mg/mL (≈ 0.438 µM).
On to `CC1(C)CCN(C(=O)NCCOc2cccnc2)C1`, for which the MDR1-MDCK efflux ratio is 3.33; the intrinsic clearance, human liver microsomes was not above 0.284 L/h/kg; the intrinsic clearance, rat liver microsomes was 2.88 L/h/kg; the aqueous solubility amounted to 0.0398 mg/mL (≈ 151 µM).
`CC(/C=C/C(=O)NO)=C\[C@@H](C)C(=O)c1ccc(N(C)C)cc1`: the MDR1-MDCK efflux ratio stood at 5.29; the intrinsic clearance, human liver microsomes was 1.4 L/h/kg; the intrinsic clearance, rat liver microsomes amounted to 9.1 L/h/kg; the aqueous solubility amounted to 0.0221 mg/mL (≈ 73.1 µM).
On to `CC(C)c1nc(O)c2nnn(C[C@@H]3CCCN(C(=O)C(C)(C)C)C3)c2n1`, for which the MDR1-MDCK efflux ratio came out at 34.4; the intrinsic clearance, human liver microsomes is 1.76 L/h/kg; the intrinsic clearance, rat liver microsomes came to 16.8 L/h/kg; the aqueous solubility turned out to be 0.0439 mg/mL (≈ 122 µM).
As to `COc1ccc(CN[C@@H]2CCC[C@H]2Cc2cc(C)no2)cc1OC`, the MDR1-MDCK efflux ratio was 3.3; the intrinsic clearance, human liver microsomes was 2.21 L/h/kg; the intrinsic clearance, rat liver microsomes was 67.2 L/h/kg.
`CNC(=O)C1(Cc2ccc(-c3ccncc3)cc2)CCN(Cc2cccc(F)c2)C1` (configuration not stated) returned a fraction unbound, human plasma of 0.127; a fraction unbound, rat plasma of 0.0519; an intrinsic clearance, human liver microsomes of 15 L/h/kg; an intrinsic clearance, rat liver microsomes of 53.5 L/h/kg. This compound also had an aqueous solubility of 0.0575 mg/mL (≈ 143 µM).
For the compound `CC(C)c1nccn1Cc1nc(-c2cccs2)no1`, the intrinsic clearance, human liver microsomes was found to be 0.813 L/h/kg and the intrinsic clearance, rat liver microsomes amounted to 116 L/h/kg.
In turn, `CC(C)(C)c1cc(C(=O)CSc2nncn2-c2ccccc2)cc(C(C)(C)C)c1O` displayed an intrinsic clearance, human liver microsomes of 0.952 L/h/kg and an intrinsic clearance, rat liver microsomes of 2.79 L/h/kg.
As to `c1ccc(Cc2cccc3cc4c(nc23)OCCNC4)cc1`, the intrinsic clearance, human liver microsomes stood at 1.47 L/h/kg; the intrinsic clearance, rat liver microsomes is 67 L/h/kg; the aqueous solubility stood at 0.0478 mg/mL (≈ 165 µM).
Turning to `Cc1ccc(C(=O)NC[C@H]2Cn3ccnc3CO2)cc1`, the MDR1-MDCK efflux ratio is 7.94; the intrinsic clearance, human liver microsomes was not above 0.284 L/h/kg; the intrinsic clearance, rat liver microsomes is not above 0.64 L/h/kg; the aqueous solubility was 0.0304 mg/mL (≈ 112 µM).
For the compound `COc1cc2c(cc1OC)[C@@H]1Cc3ccc(OC)c(OC)c3CN1CC2`, the MDR1-MDCK efflux ratio turned out to be 0.542; the intrinsic clearance, human liver microsomes turned out to be 0.347 L/h/kg; the intrinsic clearance, rat liver microsomes is 5.13 L/h/kg.
Take `NCC1CCCC1NC(=O)c1cc(N2CCNC2=O)ccc1F` (configuration not stated): the MDR1-MDCK efflux ratio was determined as 1.92; the fraction unbound, human plasma is 0.75; the intrinsic clearance, human liver microsomes was not above 0.284 L/h/kg.
Regarding `CCOC(=O)Cc1c(C)[nH]c2c(-c3ccccc3)cnn2c1=O`, the MDR1-MDCK efflux ratio is 18; the intrinsic clearance, human liver microsomes was found to be 0.373 L/h/kg; the intrinsic clearance, rat liver microsomes was found to be 5.38 L/h/kg; the aqueous solubility was found to be 0.0149 mg/mL (≈ 47.9 µM).
Take `COc1ncccc1C(=O)Nc1nc(C)nn1C`: the MDR1-MDCK efflux ratio was 0.585; the intrinsic clearance, human liver microsomes was not above 0.284 L/h/kg; the intrinsic clearance, rat liver microsomes is not above 0.64 L/h/kg.
Consider `O=C(Cc1ccccc1F)N1CCN(c2nccn3nc4c(c23)CCCC4)CC1`, for which the MDR1-MDCK efflux ratio stood at 0.961; the intrinsic clearance, human liver microsomes was 7.95 L/h/kg; the intrinsic clearance, rat liver microsomes was found to be 47 L/h/kg; the aqueous solubility was 0.0561 mg/mL (≈ 143 µM).
Regarding `Cc1ccc(CC(=O)Nc2nc(C)no2)cn1`, the MDR1-MDCK efflux ratio worked out at 2; the intrinsic clearance, human liver microsomes is not above 0.284 L/h/kg; the intrinsic clearance, rat liver microsomes was not above 0.64 L/h/kg; the aqueous solubility stood at 0.0428 mg/mL (≈ 184 µM).
As to `N#Cc1cccc(NCc2ccc(-c3cccnc3)o2)c1`, the intrinsic clearance, human liver microsomes stood at 5.49 L/h/kg and the intrinsic clearance, rat liver microsomes was found to be 25 L/h/kg.
As for `CC1(C)CN(C(=O)C2(C(=O)N3CC(C)(C)C3(C)C)CCC2)C1(C)C`, the MDR1-MDCK efflux ratio came to 2.4; the intrinsic clearance, human liver microsomes was determined as 18.2 L/h/kg; the intrinsic clearance, rat liver microsomes was determined as 72.5 L/h/kg; the aqueous solubility was found to be 0.075 mg/mL (≈ 224 µM).
On to `CNC(=O)N1CCc2nc3ccc(Cl)cn3c(=O)c2C1`, for which the MDR1-MDCK efflux ratio came to 6.16; the intrinsic clearance, human liver microsomes is not above 0.284 L/h/kg; the intrinsic clearance, rat liver microsomes is not above 0.64 L/h/kg; the aqueous solubility turned out to be 0.0505 mg/mL (≈ 173 µM).
Compound `CCCn1cc(CNC(=O)CN2CCCC2)cn1` had an intrinsic clearance, human liver microsomes not above 0.284 L/h/kg and an intrinsic clearance, rat liver microsomes of 15.2 L/h/kg.
Consider `CCc1ccc2nc(C)cc(C(=O)N3CC(c4cccnc4)C3)c2c1`, for which the MDR1-MDCK efflux ratio was determined as 11.2; the intrinsic clearance, human liver microsomes came to 8.6 L/h/kg; the intrinsic clearance, rat liver microsomes came to 39.4 L/h/kg; the aqueous solubility was determined as 0.0393 mg/mL (≈ 119 µM).
With `CCCc1ccc(C(=O)CSc2nncs2)cc1`, the MDR1-MDCK efflux ratio stood at 0.471; the intrinsic clearance, human liver microsomes was determined as 16.6 L/h/kg; the intrinsic clearance, rat liver microsomes was determined as 75.4 L/h/kg.
Take `Cc1cc(C)n2ncc(C(=O)N[C@H]3CC[C@@H](C(C)C)CC3)c2n1`: the MDR1-MDCK efflux ratio was found to be 0.775.
Take `CC(C)c1nc(O)c2nnn(C[C@@H]3CCCN(Cc4cccs4)C3)c2n1`: the MDR1-MDCK efflux ratio stood at 22.3; the intrinsic clearance, human liver microsomes stood at 1.93 L/h/kg; the intrinsic clearance, rat liver microsomes amounted to 59.9 L/h/kg; the aqueous solubility stood at 0.0491 mg/mL (≈ 132 µM).
Consider `Cn1c(SCOCc2ccccc2)nnc1C1CC1`, for which the MDR1-MDCK efflux ratio came to 0.57; the intrinsic clearance, human liver microsomes worked out at 1.63 L/h/kg; the intrinsic clearance, rat liver microsomes was 16.3 L/h/kg.
In the case of `CC(C)(C)c1nnnn1CC(=O)NC12CC3CC(CC(C3)C1)C2`, the MDR1-MDCK efflux ratio stood at 0.776; the intrinsic clearance, human liver microsomes was found to be 3.44 L/h/kg; the intrinsic clearance, rat liver microsomes stood at 31.1 L/h/kg; the aqueous solubility stood at 0.0258 mg/mL (≈ 81.4 µM).
With `CN1CCc2nc(NC(=O)c3ccc(Cl)s3)sc2C1`, the MDR1-MDCK efflux ratio worked out at 0.586; the intrinsic clearance, human liver microsomes is 1.2 L/h/kg; the intrinsic clearance, rat liver microsomes is 28.6 L/h/kg; the aqueous solubility worked out at 0.0488 mg/mL (≈ 155 µM).
As for `Cc1nccc(-c2cccc(NCC(=O)N3CCCCCCC3)c2)n1`, the MDR1-MDCK efflux ratio was found to be 0.748; the intrinsic clearance, human liver microsomes worked out at 18.1 L/h/kg; the intrinsic clearance, rat liver microsomes worked out at 123 L/h/kg; the aqueous solubility was 0.0556 mg/mL (≈ 164 µM).
For the compound `c1ccc(OCc2nc3cc4ccccc4cc3[nH]2)cc1`, the MDR1-MDCK efflux ratio worked out at 0.257 and the aqueous solubility is 0.00029 mg/mL (≈ 1.06 µM).
Regarding `CCN1C(=O)C(C)(C)COc2cc(NS(=O)(=O)c3cc(C)c(C)cc3OC)ccc21`, the intrinsic clearance, human liver microsomes amounted to 26.7 L/h/kg and the intrinsic clearance, rat liver microsomes came out at 559 L/h/kg.
For the compound `CC1(C)CC(CC(=O)NCCn2ccnn2)CC(C)(C)N1`, the MDR1-MDCK efflux ratio worked out at 0.186; the intrinsic clearance, human liver microsomes was not above 0.284 L/h/kg; the intrinsic clearance, rat liver microsomes was not above 0.64 L/h/kg.

(Values after the Biogen ADME set (Fang et al. 2023).)
